What all share (format): biochemical
The target in experiment [1] is T1, ENPP1 (Homo sapiens, UniProt P22413).
T1 sequence (P22413 1-925): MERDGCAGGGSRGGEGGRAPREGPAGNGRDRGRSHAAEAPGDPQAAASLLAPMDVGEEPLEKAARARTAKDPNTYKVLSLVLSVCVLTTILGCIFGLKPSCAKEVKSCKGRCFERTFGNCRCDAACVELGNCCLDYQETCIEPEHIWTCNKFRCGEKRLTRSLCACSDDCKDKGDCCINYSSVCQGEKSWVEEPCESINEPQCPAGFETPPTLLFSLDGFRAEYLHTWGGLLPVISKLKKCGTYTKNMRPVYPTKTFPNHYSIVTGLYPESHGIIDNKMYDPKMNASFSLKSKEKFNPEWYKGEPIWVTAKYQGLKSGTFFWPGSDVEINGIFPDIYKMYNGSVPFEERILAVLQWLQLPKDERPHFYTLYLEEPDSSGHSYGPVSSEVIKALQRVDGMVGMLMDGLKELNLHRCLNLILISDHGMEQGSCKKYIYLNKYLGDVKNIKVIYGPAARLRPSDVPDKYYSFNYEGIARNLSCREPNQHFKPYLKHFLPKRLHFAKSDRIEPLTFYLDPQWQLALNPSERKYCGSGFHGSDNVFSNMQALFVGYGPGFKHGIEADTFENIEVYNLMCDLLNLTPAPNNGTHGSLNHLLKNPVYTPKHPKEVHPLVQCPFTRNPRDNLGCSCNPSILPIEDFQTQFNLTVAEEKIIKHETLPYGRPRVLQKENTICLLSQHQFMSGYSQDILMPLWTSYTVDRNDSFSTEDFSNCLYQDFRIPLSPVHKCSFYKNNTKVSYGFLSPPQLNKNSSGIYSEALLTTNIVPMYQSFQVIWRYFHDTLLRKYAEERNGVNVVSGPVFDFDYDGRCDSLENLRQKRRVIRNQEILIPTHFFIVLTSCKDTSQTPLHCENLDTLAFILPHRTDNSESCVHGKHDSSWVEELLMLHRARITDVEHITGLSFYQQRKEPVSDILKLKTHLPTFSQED
The experiment in a line: Indirect quantitation of 2',3'-cGAMP hydrolysis (AMP-Glo Assay kit). Conditions: cGAMP substrate; Ki from IC50 by Cheng-Prusoff; read-out: ENPP1 Inhibition -cGAMP: Ki.

Experiment [2] deals with T1, ENPP1. The experiment can be described thus: ENPP1 enzyme assay with AMP-pNP substrate (hydrolysis of ATP analog). As to conditions: AMP-pNP substrate (ATP analog); Ki from IC50 by Cheng-Prusoff; read-out: ENPP1 Inhibition _AMP-pNP: Ki. A digest of the protocol:
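Human recombinant ENPP1 (60 ng/well) with 300 µM AMP-pNP in 50 mM Tris-HCl pH 8.5, 250 mM NaCl, 0.5 mM CaCl2, 1 µM ZnCl2, 0.1% DMSO, 20 min at 37 °C.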

In experiment [3] the target is T1, ENPP1. The experiment in a line: Substrate selectivity ratio, inhibition of cGAMP hydrolysis versus ATP hydrolysis. As to conditions: ratio Ki AMP-pNP / Ki cGAMP. Here is the method: The selectivity ratios for inhibition of cGAMP hydrolysis versus ATP hydrolysis were then calculated as follows: […]

The Ki is the dissociation constant of the complex between target and ligand, obtained from inhibition or displacement.

As to `COc1cc2nccc(Oc3cc(F)c(NS(N)(=O)=O)c(F)c3)c2cc1OC` [Example 271, N-(4-((6,7-dimethoxyquinolin-4-yl)oxy)-2,6-difluorophenyl)sulfamide], the Ki at ENPP1 [1] was 100 to 1000 nM; on ENPP1 [2], over 1000 nM. Moreover, the “Substrate Selectivity: Ki_AMP-pNP/Ki_cGAMP” value (“Substrate Selectivity” below) on ENPP1 [3] is over 16.2.
As to `COc1cc2ncnc(NC3CCC(NS(N)(=O)=O)CC3)c2cc1OC` (stereo not drawn) [Example 272, N-(4-((6,7-dimethoxyquinazolin-4-yl)amino)cyclohexyl)sulfamide], the Ki on ENPP1 [1] is under 100 nM; on ENPP1 [2] it was over 1000 nM. At ENPP1 [3], the “Substrate Selectivity” value was over 35.2.
In the same order, the values of `COc1cc2ncnc(Oc3ccc(NS(N)(=O)=O)cc3)c2cc1OC` [Example 273, N-(4-((6,7-dimethoxyquinazolin-4-yl)oxy)phenyl)sulfamide] are 100 to 1000 nM, over 1000 nM and over 12.4.
Consider `COc1cc2ncnc(N3CCC4(CCNC4)CC3)c2cc1OC` [Example 274, 8-(6,7-dimethoxyquinazolin-4-yl)-2,8-diazaspiro[4.5]decane], for which the Ki is 100 to 1000 nM on ENPP1 [1] and over 1000 nM at ENPP1 [2]. The “Substrate Selectivity” value at ENPP1 [3] is recorded as over 6.4.
For `COc1ccc2c(N3CCC4(CCNC4)CC3)c(C#N)cnc2c1` [Example 275, 7-methoxy-4-(2,8-diazaspiro[4.5]decan-8-yl)quinoline-3-carbonitrile] the same measures were 100 to 1000 nM, over 1000 nM and over 7.7.
In the case of `COc1ccc2c(-c3ccc(CN)cc3)c(C#N)cnc2c1` [Example 277, 4-(4-(aminomethyl)phenyl)-7-methoxyquinoline-3-carbonitrile], the results for the Ki at ENPP1 [1] and on ENPP1 [2] were 100 to 1000 nM and over 1000 nM, respectively. The “Substrate Selectivity” value on ENPP1 [3] is on record as over 90.4.
For `COc1ccc2c(NC(C)c3ccc(NS(N)(=O)=O)cc3)ncnc2c1` (stereo not drawn) [Example 279, N-(4-(1-((7-methoxyquinazolin-4-yl)amino)ethyl)phenyl)sulfamide] the same measures were under 100 nM, 100 to 1000 nM and 24.2.
Take `COc1cc2nccc(N3CCc4cc(NS(N)(=O)=O)ccc43)c2cc1OC` [Example 281, N-(1-(6,7-dimethoxyquinolin-4-yl)indolin-5-yl)sulfamide]: the Ki is under 100 nM on ENPP1 [1] and 100 to 1000 nM on ENPP1 [2]. In addition, on ENPP1 [3], the “Substrate Selectivity” value worked out at 30.7.
In the same order, the values of `COc1cc2ncc(C3CC3)c(-c3ccc4c(c3)CN(S(N)(=O)=O)CC4)c2cc1OC` [Example 283, 7-(3-cyclopropyl-6,7-dimethoxyquinolin-4-yl)-3,4-dihydroisoquinoline-2(1H)-sulfonamide] are under 100 nM, under 100 nM and 5.4.
With `COc1cc2nccc(-c3ccc(CN(O)C=O)cc3)c2cc1OC` [Example 284, N-(4-(6,7-dimethoxyquinolin-4-yl)benzyl)-N-hydroxyformamide], the Ki on ENPP1 [1] and at ENPP1 [2] was under 100 nM in each case. The “Substrate Selectivity” value on ENPP1 [3] was determined as 28.6.
Consider `COc1cc2ncnc(-c3ccc(CN(C4CC4)S(N)(=O)=O)cc3)c2cc1OC` [Example 285, N-cyclopropyl-N-(4-(6,7-dimethoxyquinazolin-4-yl)benzyl)sulfamide], for which the Ki on ENPP1 [1] is under 100 nM; on ENPP1 [2], 100 to 1000 nM. Further, at ENPP1 [3], the “Substrate Selectivity” value was over 28.3.
For `NS(=O)(=O)N1CCC2(CCN(c3ncnc4ccc(F)cc34)CC2)C1` [Example 288, 8-(6-fluoroquinazolin-4-yl)-2,8-diazaspiro[4.5]decane-2-sulfonamide] the same measures were under 100 nM, 100 to 1000 nM and 27.9.
`COc1ccc2c(-c3ccc(CN(C4CC4)S(N)(=O)=O)cc3)ccnc2c1` [Example 289, N-cyclopropyl-N-(4-(7-methoxyquinolin-4-yl)benzyl)sulfamide]: the results for the Ki at ENPP1 [1] and at ENPP1 [2] were under 100 nM and over 1000 nM, respectively. Further, the “Substrate Selectivity” value on ENPP1 [3] is reported as over 626.
For the compound `COc1cc2ncc(C#N)c(-c3ccc(CN(C4CC4)S(N)(=O)=O)cc3)c2cc1OC` [Example 290, N-(4-(3-cyano-6,7-dimethoxyquinolin-4-yl)benzyl)-N-cyclopropylsulfamide], the inhibitory constant (Ki) was under 100 nM on ENPP1 [1] and 100 to 1000 nM on ENPP1 [2]. Also, the “Substrate Selectivity” value at ENPP1 [3] is recorded as 17.1.
Consider `COc1cc2nccc(N3CCCc4cc(NS(N)(=O)=O)ccc43)c2cc1OC` [Example 291, N-(6′,7′-dimethoxy-3,4-dihydro-2H-[1,4′-biquinolin]-6-yl)sulfamide], for which the Ki on ENPP1 [1] is 100 to 1000 nM; on ENPP1 [2] it was over 1000 nM. In addition, on ENPP1 [3], the “Substrate Selectivity” value is reported as over 126.
Consider `COc1cc2nccc(Oc3ccc(N(O)C=O)cc3)c2cc1OC` [Example 292, N-(4-((6,7-dimethoxyquinolin-4-yl)oxy)phenyl)-N-hydroxyformamide], for which the Ki on ENPP1 [1] was under 100 nM; at ENPP1 [2], over 1000 nM. The “Substrate Selectivity” value at ENPP1 [3] was over 31.1.
`COc1ccc2c(NCc3ccc(S(N)(=O)=O)cc3)ccnc2c1` [Example 293, 4-(((7-methoxyquinolin-4-yl)amino)methyl)benzenesulfonamide]: the Ki at ENPP1 [1] and at ENPP1 [2] was under 100 nM each time. The “Substrate Selectivity” value on ENPP1 [3] came to 17.9.
Turning to `COc1ccc2ncc(C#N)c(-c3ccc(CN(C4CC4)S(N)(=O)=O)cc3)c2c1` [Example 294, N-(4-(3-cyano-6-methoxyquinolin-4-yl)benzyl)-N-cyclopropylsulfamide], the Ki at ENPP1 [1] is 100 to 1000 nM; on ENPP1 [2], over 1000 nM. The “Substrate Selectivity” value at ENPP1 [3] is recorded as over 119.
Regarding `NS(=O)(=O)NCc1ccc(-c2ccnc3cc(F)ccc23)cc1` [Example 296, N-(4-(7-fluoroquinolin-4-yl)benzyl)sulfamide], the results for the Ki on ENPP1 [1] and on ENPP1 [2] were under 100 nM and over 1000 nM, respectively. The “Substrate Selectivity” value at ENPP1 [3] is listed as over 40.3.
For `COc1ccc2c(Oc3ccc(NS(N)(=O)=O)c(F)c3)ccnc2c1` [Example 297, N-(2-fluoro-4-((7-methoxyquinolin-4-yl)oxy)phenyl)sulfamide] the same measures were under 100 nM, 100 to 1000 nM and 19.5.
Consider `COc1ccc2ncnc(NC(C)c3ccc(NS(N)(=O)=O)cc3)c2c1` (stereo not drawn) [Example 299, N-(4-(1-((6-methoxyquinazolin-4-yl)amino)ethyl)phenyl)sulfamide], for which the Ki on ENPP1 [1] is under 100 nM; at ENPP1 [2] it was over 1000 nM. In addition, at ENPP1 [3], the “Substrate Selectivity” value was over 45.9.
For `COc1ccc2c(Oc3ccc(NS(N)(=O)=O)cc3)c(C)cnc2c1` [Example 300, N-(4-((7-methoxy-3-methylquinolin-4-yl)oxy)phenyl)sulfamide] the same measures were under 100 nM, 100 to 1000 nM and 13.7.
For `COc1cc2ncnc(-c3ccc(CNS(N)(=O)=O)c(F)c3)c2cc1OC` [Example 301, N-(4-(6,7-dimethoxyquinazolin-4-yl)-2-fluorobenzyl)sulfamide] the same measures were under 100 nM, 100 to 1000 nM and 34.2.
